Like-named read-outs stand apart in the source and are kept apart here.

Series [1] concerns TNF-α release of LPS-induced N9 cells. Nature of the series: TNF-α release of LPS-induced N9 cells (cytokine kit). Type of series: cell-based, murine. The note with it: compound 1 μM, LPS 1 μg/mL, 48 h; for inhibition at 1 µM: Mus musculus. The method, then:
(§1) N9 cells, which were in the logarithmic phase, were incubated for 24 h by adherent culture. Subsequently, the medium was changed to new one without serum. The cells were treated with different concentration of tested compounds. After specific time in the LPS condition, the supernatants were collected and analyzed.
(§2) The secreted level of TNF-α and IL-6 was measured using mouse Th1/Th2/Th17 Cytokine Kit, purchased from BD Pharningen. The data was analyzed by FCAP Array v3.0. IL-2, IL-4, IL-10, IL-17A, and IFN-γ were not detected in the experiment.

In the next series the test system is A549 cells. The experiment in a line: MTT cytotoxicity in A549 cells. Type of series: cell-based. The note with it: Homo sapiens. The gist of the method: (§3)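 Standard MTT assay: cells seeded 24 h, treated with compounds at 6.25–100 μM in triplicate, then grown for 96 h total. Run under normoxia (air throughout) or hypoxia (95% N2 for 24 h, then 72 h normoxia). MTT added for 4 h, formazan dissolved in DMSO, absorbance read at 570 nm.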

Another series relates to HT-29 cells. Nature of the series: MTT cytotoxicity in HT-29 cells. Format: cell-based, Human. The note with it: for IC50: Homo sapiens, MTT.
The subject of series [2] is IL-6 release of LPS-induced N9 cells. The experiment in a line: IL-6 release of LPS-induced N9 cells (cytokine kit). Format: cell-based, murine. Particulars: compound 1 μM, LPS 1 μg/mL, 48 h; for inhibition at 1 µM: Mus musculus. The method, then:
as §1, §2

For series [3], the system named is NO release of LPS-induced microglial N9 cells. Nature of the series: Inhibition of NO release in LPS-induced N9 cells (Griess). Format: cell-based, murine. The note with it: Mus musculus, 1 μg/mL LPS for 48 h, NO level in medium. The essentials: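 Log-phase N9 microglia were grown adherent for 24 h, switched to serum-free medium, then given test compounds under LPS stimulation. Nitrite in supernatant was quantified by Griess reaction at 540 nm; MTT-IC20 was determined to exclude cytotoxic effects.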
(The Griess reaction detects nitrite, a stable product of nitric oxide.)

Series [4] in a line: MTT cytotoxicity in N9 cells. Type of series: cell-based, murine. Particulars: mouse, N9 microglial cells, cytotoxic activity. The gist of the method:
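N9 microglial cells seeded at 1.5–3 × 10^4 cells/mL, grown 24 h, then exposed to compounds at 6.25–100 μM in triplicate for 96 h. Viability by MTT (4 h), formazan dissolved in DMSO, absorbance at 570 nm; MTT-IC20 derived.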

For another series, the system named is HCT-116 cells. The experiment in a line: MTT cytotoxicity in HCT-116 cells. Type of series: cell-based. The note with it: Homo sapiens. The gist of the method: as §3
The subject of the next series is MDA-MB-231 cells. Nature of the series: MTT cytotoxicity in MDA-MB-231 cells. Format: cell-based. The note with it: Homo sapiens. The essentials:
as §3

Series [5] is described as follows: NO capture analysis with sodium nitroprusside (Griess). The note with it: 0.01-10 μM compound, 0.5 mM SNP solution, 1 h, room temperature. The method, then: Sodium nitroprusside (SNP) is a NO donor. In this experiment, the reason of the DCH reducing NO level was preliminary explored. […] That means the main reason of the NO level reduction is due to species-specific effect.
SNP was dissolved in PBS to prepare the 100 mM stock solution. In this experiment, SNP solution of […] was added to 975 μL PBS solution which included different concentration of tested compounds. After 60 min under r.t. condition, the concentration of NO2^− was tested using Griess assay.
6l (0.01 μM, 0.1 μM, 1 μM, and 10 μM) or 5n (0.01 μM, 0.1 μM, 1 μM, and 10 μM) was added to a concentration of 0.5 mM SNP solution. […] Data were shown as mean ± SD. *** p < 0.001 compared with control group.

Setting [6] is: A549, hypoxia 24 h then normoxia 72 h, read-out: IC50 A549 Hypoxia.
The mark [7] stands for this setting: A549, normoxia 96 h, read-out: IC50 A549 Normoxia.
[8] abbreviates: HT-29, hypoxia 24 h then normoxia 72 h, read-out: IC50 HT-29 Hypoxia.
Setting [9] is: HT-29, normoxia 96 h, read-out: IC50 HT-29 Normoxia.
Where [10] appears, read: HCT-116, hypoxia 24 h then normoxia 72 h, read-out: IC50 HCT-116 Hypoxia.
Where [11] appears, read: HCT-116, normoxia 96 h, read-out: IC50 HCT-116 Normoxia.
The mark [12] stands for this setting: MDA-MB-231, hypoxia 24 h then normoxia 72 h, read-out: IC50 MDA-MB-231 Hypoxia.
Where [13] appears, read: MDA-MB-231, normoxia 96 h, read-out: IC50 MDA-MB-231 Normoxia.

Usually inhibition stands for how much of the control response was suppressed. Read a high inhibition as a response far below the control. Broadly, the IC50 is the concentration that gives 50% inhibition. As usually defined, the melting point is the temperature, or range, at which the solid turns liquid. As a reminder, the IC20 is the concentration needed for an effect of 20%. Compound `C[C@H]1[C@@H](OCCc2cn(Cc3cc4cc(Br)ccc4oc3=O)nn2)O[C@@H]2O[C@@]3(C)CC[C@H]4[C@H](C)CC[C@@H]1[C@@]24OO3` [2b, 6-bromo-3-((4-(2-((10S)-dihydroartemisininoxy)ethyl)-1H-1,2,3-triazol-1-yl)-methyl)-2H-1-chromen-2-one] displayed a melting point of 138 to 140 °C. In series [1], this compound returned an inhibition at 1 µM of 27.2% and a TNF-α of 3285.99 ± 1062.40 pg/mL. In addition, in the series with A549 cells (setting [6]), the IC50 was found to be 60.2 µM. Besides, the IC50 with A549 cells (setting [7]) is over 100 µM. Further, the IC50 in the series on HT-29 cells (setting [8]) stood at 12.1 µM. In addition, in the series with HT-29 cells (setting [9]), the IC50 amounted to 9.75 µM. In addition, in series [2], the inhibition at 1 µM is 30.9% and the IL-6 came out at 797.52 ± 140.74 pg/mL. This compound registered an IC50 in [3] of 0.64 µM. The IC20 in series [4] is over 10 µM. The IC50 in the series on HCT-116 cells (setting [10]) was over 100 µM. In the series with HCT-116 cells (setting [11]), the IC50 is 56 µM. The IC50 with MDA-MB-231 cells (setting [12]) is 36.9 µM. Besides, the IC50 with MDA-MB-231 cells (setting [13]) was found to be 37.7 µM.
For the compound `C[C@H]1[C@@H](OCCc2cn(Cc3cc4cc(Cl)ccc4oc3=O)nn2)O[C@@H]2O[C@@]3(C)CC[C@H]4[C@H](C)CC[C@@H]1[C@@]24OO3` [2c, 6-chloro-3-((4-(2-((10S)-dihydroartemisininoxy)ethyl)-1H-1,2,3-triazol-1-yl)-methyl)-2H-1-chromen-2-one], the melting point was in the range of 138 to 140 °C. In series [1], this compound displayed an inhibition at 1 µM of 32.1% and a TNF-α of 3077.03 ± 375.48 pg/mL. In addition, the IC50 in the series on A549 cells (setting [6]) turned out to be 66.9 µM. Besides, the IC50 in the series on A549 cells (setting [7]) came out at 87.2 µM. In addition, the IC50 with HT-29 cells (setting [8]) was 19.6 µM. For the same compound, in the series on HT-29 cells (setting [9]), the IC50 is 17.5 µM. In series [2], this compound had an inhibition at 1 µM of 26.4% and an IL-6 of 850.24 ± 112.47 pg/mL. Moreover, in [3], the IC50 amounted to 2.66 µM. The IC20 in series [4] was over 10 µM. For the same compound, the concentration for half-maximal inhibition (IC50) in the series on HCT-116 cells (setting [10]) stood at 64.4 µM. Further, the half-maximal inhibitory concentration (IC50) in the series with HCT-116 cells (setting [11]) came out at 49.5 µM. Further, the IC50 in the series on MDA-MB-231 cells (setting [12]) is 32.5 µM. In addition, the IC50 in the series with MDA-MB-231 cells (setting [13]) is 44 µM.
Turning to `Cc1ccc2c(OCc3cn(CCO[C@H]4O[C@@H]5O[C@@]6(C)CC[C@H]7[C@H](C)CC[C@@H]([C@H]4C)[C@@]57OO6)nn3)cc(=O)oc2c1C` [5n], the melting point was 91 to 93 °C. In series [1], this compound gave an inhibition at 1 µM of 22% and a TNF-α of 3508.08 ± 368.72 pg/mL. In the series on A549 cells (setting [6]), the IC50 amounted to 2.44 µM. Also, in the series on A549 cells (setting [7]), the IC50 was determined as 2.11 µM. Also, the “cell viability of HT-29 cells” value with HT-29 cells (6.25-100 μM for 48 h, MTT staining) is reported as “decreased in a dose-dependent manner”. The concentration for half-maximal inhibition (IC50) in the series with HT-29 cells (setting [8]) was 8.9 µM. Also, the IC50 with HT-29 cells (setting [9]) is 10.2 µM. In series [2], this compound displayed an inhibition at 1 µM of 43.1% and an IL-6 of 656.75 ± 79.49 pg/mL. For the same compound, in series [3], the half-inhibitory concentration (IC50) amounted to 0.22 µM. Moreover, in series [4], the IC20 came to 2.44 µM. Further, the IC50 with HCT-116 cells (setting [10]) was determined as 32.9 µM. The IC50 in the series with HCT-116 cells (setting [11]) came to 25.6 µM. Besides, the IC50 in the series with MDA-MB-231 cells (setting [12]) came out at 11.7 µM. Further, the IC50 in the series on MDA-MB-231 cells (setting [13]) worked out at 11 µM. In addition, the “NO radical scavenging activity” value in [5] is given as “had NO radical scavenging activity”.
Consider `Cc1cc(C)c2c(OCc3cn(CCCO[C@H]4O[C@@H]5O[C@@]6(C)CC[C@H]7[C@H](C)CC[C@@H]([C@H]4C)[C@@]57OO6)nn3)cc(=O)oc2c1` [6l], for which the melting point fell in the range of 86 to 88 °C. In addition, in the series on A549 cells (setting [6]), the IC50 came to 9.78 µM. Moreover, the IC50 in the series on A549 cells (setting [7]) came out at 6.88 µM. Further, in the series with HT-29 cells (setting [8]), the IC50 was found to be 3.4 µM. For the same compound, the IC50 in the series on HT-29 cells (setting [9]) is 8.41 µM. In [3], this compound had a concentration for half-maximal inhibition (IC50) of 0.52 µM. Further, the IC20 in [4] was over 10 µM. The IC50 in the series on HCT-116 cells (setting [10]) was 27.9 µM. For the same compound, the IC50 in the series on HCT-116 cells (setting [11]) was determined as 26.9 µM. For the same compound, the IC50 in the series with MDA-MB-231 cells (setting [12]) was found to be 6.85 µM. Besides, the IC50 with MDA-MB-231 cells (setting [13]) was 1.17 µM. Moreover, in [5], the “NO radical scavenging activity” value is “had NO radical scavenging activity”.
Compound `Cc1ccc2oc(=O)cc(OCc3cn(CCCO[C@H]4O[C@@H]5O[C@@]6(C)CC[C@H]7[C@H](C)CC[C@@H]([C@H]4C)[C@@]57OO6)nn3)c2c1` [6p] yielded a melting point of 80 to 82 °C. Besides, in series [1], the inhibition at 1 µM was found to be 23.4% and the TNF-α was 3451.29 ± 646.50 pg/mL. In the series on A549 cells (setting [6]), the IC50 is 18.8 µM. In addition, the IC50 in the series with A549 cells (setting [7]) is 18.9 µM. The IC50 with HT-29 cells (setting [8]) came out at 12.5 µM. Besides, the IC50 in the series on HT-29 cells (setting [9]) amounted to 7.49 µM. For the same compound, in series [2], at 1 µM the inhibition was 35.2% and the IL-6 came to 747.80 ± 125.56 pg/mL. In addition, the IC50 in series [3] amounted to 1.42 µM. Also, in series [4], the IC20 is over 10 µM. Also, the IC50 in the series on HCT-116 cells (setting [10]) was found to be 38.1 µM. The IC50 in the series with HCT-116 cells (setting [11]) is 35.3 µM. The IC50 with MDA-MB-231 cells (setting [12]) was determined as 10.3 µM. In addition, the IC50 with MDA-MB-231 cells (setting [13]) came to 22.1 µM.

For the origin of these results see PMC6539525, “Design, Synthesis, and Mechanism of Dihydroartemisinin–Coumarin Hybrids as Potential Anti-Neuroinflammatory Agents” (Molecules, 2019).
